# Source: patent publication US8138183B2, “Morpholino pyrimidine derivatives used in diseases linked to mTOR kinase and/or PI3K” (AstraZeneca AB, priority 2007, dated 2012)
# pIC50: −log10 of the molar value.
# Target: recombinant mTOR (Homo sapiens, UniProt P42345)
# Experiment: In Vitro mTOR Kinase Assay, Test (a)(i) (AlphaScreen)
# Format: biochemical
# Details: read-out: IC50 versus mTOR kinase
# Procedure: (a)(i) In Vitro mTOR Kinase Assay
# The assay used AlphaScreen technology (Gray et al., Analytical Biochemistry, 2003, 313: 234-245) to determine the ability of test compounds to inhibit phosphorylation by recombinant mTOR.
# The HEK293 FLAG-tagged mTOR (1362-2549) stable cell line was routinely maintained at 37° C. with 5% CO2 up to a confluency of 70-90% in Dulbecco's modified Eagle's growth medium (DMEM; Invitrogen Limited, Paisley, UK Catalogue No. 41966-029) containing 10% heat-inactivated foetal calf serum (FCS; Sigma, Poole, Dorset, UK, Catalogue No. F0392), 1% L-glutamine (Gibco, Catalogue No. 25030-024) and 2 mg/ml Geneticin (G418 sulfate; Invitrogen Limited, UK Catalogue No. 10131-027). […]
# Each reaction was stopped by the addition of 10 μl of a mixture of EDTA (50 mM), bovine serum albumin (BSA; 0.5 mg/mL) and Tris-HCl pH7.4 buffer (50 mM) containing p70 S6 Kinase (T389) 1A5 Monoclonal Antibody (Cell Signalling Technology, Catalogue No. 9206B) and AlphaScreen Streptavidin donor and Protein A acceptor beads (200 ng; Perkin Elmer, Catalogue No. 6760002B and 6760137R respectively) were added and the assay plates were left for about 20 hours at room temperature in the dark. The resultant signals arising from laser light excitation at 680 nm were read using a Packard Envision instrument. […]
# mTOR enzyme inhibition for a given test compound was expressed as an IC50 value.
# Sequence of recombinant mTOR (P42345 1362-2549): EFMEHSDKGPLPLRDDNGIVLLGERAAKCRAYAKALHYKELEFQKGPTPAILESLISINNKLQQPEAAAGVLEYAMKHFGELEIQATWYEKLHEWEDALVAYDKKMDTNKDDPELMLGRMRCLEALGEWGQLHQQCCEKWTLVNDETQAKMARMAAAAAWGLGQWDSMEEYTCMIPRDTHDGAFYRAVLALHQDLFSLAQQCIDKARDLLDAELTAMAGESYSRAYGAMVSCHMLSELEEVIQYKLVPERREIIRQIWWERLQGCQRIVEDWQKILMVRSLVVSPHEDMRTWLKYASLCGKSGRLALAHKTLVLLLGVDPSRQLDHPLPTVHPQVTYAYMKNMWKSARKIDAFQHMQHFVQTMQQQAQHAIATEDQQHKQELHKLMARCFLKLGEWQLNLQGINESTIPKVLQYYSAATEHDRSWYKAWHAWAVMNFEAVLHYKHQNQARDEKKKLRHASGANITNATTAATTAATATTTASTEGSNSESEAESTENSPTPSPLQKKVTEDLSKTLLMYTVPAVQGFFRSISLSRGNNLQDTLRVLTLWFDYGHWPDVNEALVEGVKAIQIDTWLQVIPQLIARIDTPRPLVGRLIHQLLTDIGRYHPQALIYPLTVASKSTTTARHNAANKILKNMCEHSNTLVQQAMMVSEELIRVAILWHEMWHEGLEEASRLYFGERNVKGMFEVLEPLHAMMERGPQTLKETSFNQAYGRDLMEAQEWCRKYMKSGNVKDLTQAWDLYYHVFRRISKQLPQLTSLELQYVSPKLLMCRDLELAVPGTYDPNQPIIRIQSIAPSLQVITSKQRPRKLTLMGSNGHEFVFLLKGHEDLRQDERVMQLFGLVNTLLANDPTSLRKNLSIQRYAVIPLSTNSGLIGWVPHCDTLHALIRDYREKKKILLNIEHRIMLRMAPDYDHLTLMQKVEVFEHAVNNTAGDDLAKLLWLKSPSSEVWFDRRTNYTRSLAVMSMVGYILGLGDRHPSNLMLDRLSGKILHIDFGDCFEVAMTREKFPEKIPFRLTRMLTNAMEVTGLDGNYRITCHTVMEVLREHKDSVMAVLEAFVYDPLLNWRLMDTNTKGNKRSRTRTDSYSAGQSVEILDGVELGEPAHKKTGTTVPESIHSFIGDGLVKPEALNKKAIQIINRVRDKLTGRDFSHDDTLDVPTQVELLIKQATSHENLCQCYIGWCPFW
structure (smiles),measurement,value
"C[C@H]1COCCN1c1cc(CS(C)(=O)=O)nc(-c2ccc(NC(=S)Nc3ccccc3)cc2)n1 [Example 1b, 1-[4-[4-[(3S)-3-methylmorpholin-4-yl]-6-(methylsulfonylmethyl)pyrimidin-2-yl]phenyl]-3-phenyl-thiourea]",pIC50,6.26
